The source made the active and inactive calls. The rule behind the calls is not given here.
How the values were obtained:
[1] = biological target: T1, Non-receptor tyrosine-protein kinase TYK2 (Homo sapiens, UniProt P29597); experiment: Inhibition of TYK2 dependent IFNalpha-stimulated STAT3 phosphorylation in human Jurkat cells; type: cell-based
[2] = Stability in mouse liver microsomes assessed as parent compound remaining measured after 60 mins; type: ADME, Microsome; details: read-out: Stability
[3] = Stability in human liver microsomes assessed as parent compound remaining measured after 60 mins; type: ADME, Microsome; details: read-out: Stability
[4] = biological target: T1, Non-receptor tyrosine-protein kinase TYK2; experiment: Binding affinity to TYK2 JH2 domain (unknown origin) assessed as melting temperature at 10 uM by thermal shift assay; details: tested as the 2H-labelled form
[5] = biological target: T1, Non-receptor tyrosine-protein kinase TYK2; experiment: Binding affinity to TYK2 JH2 domain (unknown origin) assessed as melting temperature at 1 uM by thermal shift assay; details: tested as the 2H-labelled form
[6] = system: Mus musculus; experiment: Anti-colitis activity against anti-CD40 induced immunodeficient Rag1 KO colitis mouse model assessed as decrease in colon weight at 15 to 30 mg/kg, po bid; type: functional, organism-based; details: dose 15-30 mg/kg, tested as the 2H-labelled form
[7] = MRT (0 to t) in mouse at 1 mg/kg, iv; type: ADME, organism-based; details: in vivo
[8] = biological target: T2, CYP1A2 (Homo sapiens, UniProt P05177); experiment: Inhibition of CYP1A2 (unknown origin) at 1 uM relative to control; type: ADME
T2 sequence (P05177 whole entry): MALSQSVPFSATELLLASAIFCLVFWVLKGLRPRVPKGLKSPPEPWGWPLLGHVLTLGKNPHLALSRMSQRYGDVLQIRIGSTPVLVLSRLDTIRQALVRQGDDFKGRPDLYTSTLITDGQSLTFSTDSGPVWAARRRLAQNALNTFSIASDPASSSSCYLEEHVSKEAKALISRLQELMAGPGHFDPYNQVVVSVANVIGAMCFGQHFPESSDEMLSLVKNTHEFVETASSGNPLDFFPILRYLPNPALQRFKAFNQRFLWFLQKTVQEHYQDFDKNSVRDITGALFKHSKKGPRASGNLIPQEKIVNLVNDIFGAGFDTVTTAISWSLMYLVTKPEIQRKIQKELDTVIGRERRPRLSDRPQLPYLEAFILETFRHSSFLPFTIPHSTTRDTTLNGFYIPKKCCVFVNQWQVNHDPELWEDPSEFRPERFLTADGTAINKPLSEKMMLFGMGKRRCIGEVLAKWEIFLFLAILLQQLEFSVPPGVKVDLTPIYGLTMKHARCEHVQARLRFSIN

[9] = AUC(0 to infinity) in mouse at 1 mg/kg, iv; type: ADME, organism-based; parameters: dose 1 mg/kg, route iv; details: in vivo
[10] = C0 in mouse at 1 mg/kg, iv; type: ADME, organism-based; details: in vivo
[11] = biological target: CYP3A4 (Homo sapiens, UniProt P08684); experiment: Inhibition of CYP3A4 (unknown origin) at 1 uM relative to control; type: ADME
[12] = Toxicity in anti-CD40 induced immunodeficient Rag1 KO colitis mouse model assessed as body weight loss at 10 to 30 mg/kg, po bid administered for 6 days; type: organism-based; details: in vivo, 144 h, dose 10-30 mg/kg, time 6 day
[13] = Clearance in mouse at 1 mg/kg, iv; type: ADME, organism-based; details: in vivo
[14] = Volume of distribution in mouse at 1 mg/kg, iv; type: ADME, organism-based; details: in vivo
[15] = biological target: Tyrosine-protein kinase JAK2 (Homo sapiens, UniProt O60674); experiment: Inhibition of JAK2 dependent GM-CSF stimulated STAT3 phosphorylation in human TF-1 cells; type: cell-based
[16] = Half life in mouse at 1 mg/kg, iv; type: ADME, organism-based; details: in vivo
[17] = MRT (0 to t) in mouse at 30 mg/kg, IG; type: ADME, organism-based; details: in vivo, po
[18] = Plasma protein binding in anti-CD40 induced immunodeficient Rag1 KO colitis mouse model; type: ADME, cell-free; details: read-out: PPB (converted)
[19] = Cmax in mouse at 30 mg/kg, IG; type: ADME, organism-based; parameters: dose 30 mg/kg, route ig; details: in vivo, po
[20] = biological target: CYP2C19 (Homo sapiens, UniProt P33261); experiment: Inhibition of CYP2C19 (unknown origin) at 1 uM relative to control; type: ADME
Sequence of CYP2C19 (P33261 whole entry): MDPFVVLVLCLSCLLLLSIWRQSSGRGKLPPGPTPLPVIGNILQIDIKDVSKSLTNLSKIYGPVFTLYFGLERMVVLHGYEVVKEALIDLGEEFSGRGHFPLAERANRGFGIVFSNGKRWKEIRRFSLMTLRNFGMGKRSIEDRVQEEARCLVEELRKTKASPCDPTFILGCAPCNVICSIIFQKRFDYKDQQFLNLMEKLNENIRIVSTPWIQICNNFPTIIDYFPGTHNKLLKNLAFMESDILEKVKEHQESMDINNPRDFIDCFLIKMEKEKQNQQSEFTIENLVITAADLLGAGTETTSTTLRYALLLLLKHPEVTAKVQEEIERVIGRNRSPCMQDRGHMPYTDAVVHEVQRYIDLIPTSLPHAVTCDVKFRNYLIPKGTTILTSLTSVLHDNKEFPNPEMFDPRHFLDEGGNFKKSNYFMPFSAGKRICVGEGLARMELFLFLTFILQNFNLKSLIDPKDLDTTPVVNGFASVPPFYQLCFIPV

[21] = biological target: hERG (KCNH2) (Homo sapiens, UniProt Q12809); experiment: Inhibition of human ERG at 10 uM by patch clamp method relative to control; type: toxicity
Sequence of hERG (KCNH2) (Q12809 whole entry): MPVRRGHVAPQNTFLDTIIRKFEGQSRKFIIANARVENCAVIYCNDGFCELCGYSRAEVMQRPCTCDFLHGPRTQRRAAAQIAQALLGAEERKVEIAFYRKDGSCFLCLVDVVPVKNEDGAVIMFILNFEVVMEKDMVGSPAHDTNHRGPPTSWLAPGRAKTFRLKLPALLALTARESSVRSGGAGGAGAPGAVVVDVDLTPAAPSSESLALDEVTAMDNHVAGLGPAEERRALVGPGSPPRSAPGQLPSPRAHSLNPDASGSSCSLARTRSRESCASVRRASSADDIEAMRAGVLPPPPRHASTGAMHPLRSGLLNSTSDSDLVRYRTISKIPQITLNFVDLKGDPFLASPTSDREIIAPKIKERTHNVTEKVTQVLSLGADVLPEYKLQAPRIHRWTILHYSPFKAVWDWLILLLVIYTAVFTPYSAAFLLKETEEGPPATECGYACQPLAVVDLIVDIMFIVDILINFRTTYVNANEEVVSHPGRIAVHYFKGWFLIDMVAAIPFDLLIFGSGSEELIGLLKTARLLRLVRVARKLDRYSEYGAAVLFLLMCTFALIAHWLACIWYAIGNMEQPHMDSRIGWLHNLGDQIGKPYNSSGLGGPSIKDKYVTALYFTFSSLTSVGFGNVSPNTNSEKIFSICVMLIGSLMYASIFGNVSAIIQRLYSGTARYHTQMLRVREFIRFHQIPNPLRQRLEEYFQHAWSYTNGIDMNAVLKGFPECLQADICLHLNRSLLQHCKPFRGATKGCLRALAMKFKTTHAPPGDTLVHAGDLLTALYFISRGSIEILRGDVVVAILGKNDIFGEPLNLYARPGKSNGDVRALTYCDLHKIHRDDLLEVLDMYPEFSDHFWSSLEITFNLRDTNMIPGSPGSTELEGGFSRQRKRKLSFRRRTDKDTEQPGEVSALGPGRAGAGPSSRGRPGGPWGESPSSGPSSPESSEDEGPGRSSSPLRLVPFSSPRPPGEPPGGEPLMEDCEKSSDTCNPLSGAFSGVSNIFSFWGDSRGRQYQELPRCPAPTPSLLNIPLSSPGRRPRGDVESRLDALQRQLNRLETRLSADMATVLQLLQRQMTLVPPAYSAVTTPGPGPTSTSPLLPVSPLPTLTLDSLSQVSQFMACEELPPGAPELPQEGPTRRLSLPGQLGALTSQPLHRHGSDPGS

[22] = AUC(0 to infinity) in mouse at 30 mg/kg, IG; type: ADME, organism-based; parameters: dose 30 mg/kg, route ig; details: in vivo, po
[23] = biological target: JAK3/JAK1 (Homo sapiens, UniProt P23458+P52333); experiment: Inhibition of JAK1/3 dependent IL-2 stimulated STAT5 phosphorylation in CD3-positive T cells (unknown origin); type: cell-based, CD3-positive T cell
Sequence of JAK3/JAK1 (P52333 whole entry): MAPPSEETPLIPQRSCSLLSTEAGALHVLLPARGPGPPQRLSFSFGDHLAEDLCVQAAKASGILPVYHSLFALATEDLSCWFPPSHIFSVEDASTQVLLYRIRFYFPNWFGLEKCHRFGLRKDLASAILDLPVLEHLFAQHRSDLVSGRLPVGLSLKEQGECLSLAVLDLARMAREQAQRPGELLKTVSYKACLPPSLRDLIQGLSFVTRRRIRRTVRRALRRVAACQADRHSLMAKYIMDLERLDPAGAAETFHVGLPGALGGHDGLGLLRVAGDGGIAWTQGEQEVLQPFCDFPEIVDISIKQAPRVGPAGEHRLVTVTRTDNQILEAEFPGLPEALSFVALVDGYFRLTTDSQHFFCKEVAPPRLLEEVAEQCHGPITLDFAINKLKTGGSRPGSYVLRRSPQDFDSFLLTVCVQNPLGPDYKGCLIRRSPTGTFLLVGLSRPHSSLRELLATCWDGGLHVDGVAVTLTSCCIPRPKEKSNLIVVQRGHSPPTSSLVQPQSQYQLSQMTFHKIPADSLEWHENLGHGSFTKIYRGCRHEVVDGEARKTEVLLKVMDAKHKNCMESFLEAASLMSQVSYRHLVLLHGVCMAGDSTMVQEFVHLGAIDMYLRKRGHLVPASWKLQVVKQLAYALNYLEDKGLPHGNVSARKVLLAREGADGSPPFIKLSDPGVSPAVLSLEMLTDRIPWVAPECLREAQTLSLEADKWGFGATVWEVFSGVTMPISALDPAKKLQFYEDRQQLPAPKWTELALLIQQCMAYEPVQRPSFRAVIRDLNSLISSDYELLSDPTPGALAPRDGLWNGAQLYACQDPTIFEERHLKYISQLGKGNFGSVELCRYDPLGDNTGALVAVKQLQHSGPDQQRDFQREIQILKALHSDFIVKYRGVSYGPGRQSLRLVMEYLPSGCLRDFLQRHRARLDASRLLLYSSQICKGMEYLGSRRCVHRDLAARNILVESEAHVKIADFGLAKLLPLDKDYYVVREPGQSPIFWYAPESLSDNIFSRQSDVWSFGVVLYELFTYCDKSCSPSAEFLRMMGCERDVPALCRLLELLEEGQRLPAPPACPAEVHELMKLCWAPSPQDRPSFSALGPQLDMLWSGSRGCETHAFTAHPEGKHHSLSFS
Sequence of JAK3/JAK1 (P23458 whole entry): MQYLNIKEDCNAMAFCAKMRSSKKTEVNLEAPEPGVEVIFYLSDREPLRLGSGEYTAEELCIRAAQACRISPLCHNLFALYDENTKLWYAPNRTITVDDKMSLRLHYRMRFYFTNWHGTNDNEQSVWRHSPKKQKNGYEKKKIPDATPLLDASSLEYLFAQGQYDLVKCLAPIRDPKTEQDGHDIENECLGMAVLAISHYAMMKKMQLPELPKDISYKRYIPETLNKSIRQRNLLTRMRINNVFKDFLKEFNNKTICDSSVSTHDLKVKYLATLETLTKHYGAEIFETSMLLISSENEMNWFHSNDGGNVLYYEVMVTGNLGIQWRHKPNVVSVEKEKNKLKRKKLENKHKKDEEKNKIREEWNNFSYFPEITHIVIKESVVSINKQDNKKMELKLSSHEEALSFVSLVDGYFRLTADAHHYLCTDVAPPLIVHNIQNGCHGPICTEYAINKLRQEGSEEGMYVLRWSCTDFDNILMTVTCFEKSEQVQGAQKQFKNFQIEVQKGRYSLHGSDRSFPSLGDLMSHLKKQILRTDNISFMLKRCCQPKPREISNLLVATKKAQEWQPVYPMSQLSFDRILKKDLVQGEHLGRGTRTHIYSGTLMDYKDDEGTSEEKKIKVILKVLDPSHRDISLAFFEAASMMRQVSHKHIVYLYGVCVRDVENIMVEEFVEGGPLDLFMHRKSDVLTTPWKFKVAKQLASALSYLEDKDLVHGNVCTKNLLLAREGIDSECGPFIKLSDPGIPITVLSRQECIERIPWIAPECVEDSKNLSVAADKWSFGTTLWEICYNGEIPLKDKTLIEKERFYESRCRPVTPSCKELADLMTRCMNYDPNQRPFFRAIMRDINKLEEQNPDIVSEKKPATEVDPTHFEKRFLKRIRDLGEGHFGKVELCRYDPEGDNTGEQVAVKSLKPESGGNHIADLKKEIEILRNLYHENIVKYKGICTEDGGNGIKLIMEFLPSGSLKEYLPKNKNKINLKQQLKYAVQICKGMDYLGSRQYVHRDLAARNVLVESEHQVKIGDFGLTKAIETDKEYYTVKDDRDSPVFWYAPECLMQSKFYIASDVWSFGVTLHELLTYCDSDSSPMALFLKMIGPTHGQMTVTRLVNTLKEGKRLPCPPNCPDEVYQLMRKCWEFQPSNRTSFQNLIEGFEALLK

[24] = biological target: CYP2D6 (Homo sapiens, UniProt P10635); experiment: Inhibition of CYP2D6 (unknown origin) at 1 uM relative to control; type: ADME
[25] = Bioavailability in mouse at 30 mg/kg, IG; type: ADME, organism-based; details: in vivo, po
[26] = Half life in mouse at 30 mg/kg, IG; type: ADME, organism-based; details: in vivo, po
[27] = Tmax in mouse at 30 mg/kg, IG; type: ADME, organism-based; details: in vivo, po
[28] = biological target: T3, CYP2B6 (Homo sapiens, UniProt P20813); experiment: Inhibition of CYP2B6 (unknown origin) at 1 uM relative to control; type: ADME
T3 sequence (P20813 whole entry): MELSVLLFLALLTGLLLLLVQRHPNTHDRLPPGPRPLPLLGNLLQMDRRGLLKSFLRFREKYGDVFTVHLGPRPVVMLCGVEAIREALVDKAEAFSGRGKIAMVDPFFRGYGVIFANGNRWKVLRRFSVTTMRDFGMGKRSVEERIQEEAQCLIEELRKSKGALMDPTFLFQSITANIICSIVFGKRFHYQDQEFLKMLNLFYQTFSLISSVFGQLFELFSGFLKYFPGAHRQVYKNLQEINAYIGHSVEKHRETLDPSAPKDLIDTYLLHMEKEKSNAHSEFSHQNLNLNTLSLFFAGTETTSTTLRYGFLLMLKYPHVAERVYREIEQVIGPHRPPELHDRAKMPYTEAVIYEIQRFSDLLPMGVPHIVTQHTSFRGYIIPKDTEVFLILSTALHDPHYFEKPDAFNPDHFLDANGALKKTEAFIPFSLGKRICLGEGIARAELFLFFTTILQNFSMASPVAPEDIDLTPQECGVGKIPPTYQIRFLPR

[29] = biological target: CYP2C9 (Homo sapiens, UniProt P11712); experiment: Inhibition of CYP2C9 (unknown origin) at 1 uM relative to control; type: ADME

T1 sequence (P29597 whole entry): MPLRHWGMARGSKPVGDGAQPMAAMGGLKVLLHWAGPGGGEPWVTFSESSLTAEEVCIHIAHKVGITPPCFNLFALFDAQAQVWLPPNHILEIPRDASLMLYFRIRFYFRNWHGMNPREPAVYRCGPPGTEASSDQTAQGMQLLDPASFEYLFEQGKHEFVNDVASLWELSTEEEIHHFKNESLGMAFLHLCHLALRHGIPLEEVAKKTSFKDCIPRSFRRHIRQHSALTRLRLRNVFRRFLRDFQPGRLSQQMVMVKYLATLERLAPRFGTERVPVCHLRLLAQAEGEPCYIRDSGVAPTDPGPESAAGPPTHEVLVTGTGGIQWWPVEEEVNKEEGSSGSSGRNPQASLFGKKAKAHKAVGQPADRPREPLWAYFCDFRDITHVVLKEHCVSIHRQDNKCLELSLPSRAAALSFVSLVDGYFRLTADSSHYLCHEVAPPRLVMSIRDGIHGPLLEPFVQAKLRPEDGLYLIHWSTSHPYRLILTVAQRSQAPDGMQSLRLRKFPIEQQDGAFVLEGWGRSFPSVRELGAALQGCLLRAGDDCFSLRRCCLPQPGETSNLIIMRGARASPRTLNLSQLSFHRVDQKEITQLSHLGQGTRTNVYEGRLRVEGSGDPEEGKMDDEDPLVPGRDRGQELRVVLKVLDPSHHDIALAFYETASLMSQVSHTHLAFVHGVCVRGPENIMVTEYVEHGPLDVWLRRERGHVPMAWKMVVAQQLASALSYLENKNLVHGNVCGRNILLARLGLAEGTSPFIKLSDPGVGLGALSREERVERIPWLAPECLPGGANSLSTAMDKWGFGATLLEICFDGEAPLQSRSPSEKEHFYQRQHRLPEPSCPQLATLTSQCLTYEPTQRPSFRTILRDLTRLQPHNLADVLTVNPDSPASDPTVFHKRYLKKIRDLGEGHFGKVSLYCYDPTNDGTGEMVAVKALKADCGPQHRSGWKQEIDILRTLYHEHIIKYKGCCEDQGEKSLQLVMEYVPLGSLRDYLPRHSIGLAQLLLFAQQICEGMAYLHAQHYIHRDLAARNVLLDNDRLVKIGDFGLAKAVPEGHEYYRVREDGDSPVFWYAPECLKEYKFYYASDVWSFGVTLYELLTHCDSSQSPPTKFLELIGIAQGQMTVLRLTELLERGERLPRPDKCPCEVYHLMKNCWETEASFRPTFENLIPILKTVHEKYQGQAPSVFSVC

[2H]C([2H])([2H])NC(=O)c1nnc(NC(=O)C2CC2)cc1Nc1cccc(C(=O)Nc2ccc(-n3ccccc3=O)cc2)c1OC
IC50 [1]: 3.2 nM
remaining at 1 h [2]: 71.3%
remaining at 1 h [3]: 75.8%

CNC(=O)c1nnc(NC(=O)C2CC2)cc1Nc1cccc(C(=O)Nc2ccc(-c3ncn(C4CC4)n3)cc2)c1OC
Tm [4]: 62 °C
Tm [5]: 57 °C
Activity [6]: Active

[2H]C([2H])([2H])NC(=O)c1nnc(NC(=O)C2CC2)cc1Nc1cccc(C(=O)Nc2ccc(-c3ncn(C4CC4)n3)cc2)c1OC
MRT last [7]: 2.12 h
inhibition at 1 µM [8]: 1.18%
AUC [9]: 1694 ng·h/mL
C0 [10]: 702 ng/mL
inhibition at 1 µM [11]: 5.25%
Activity [12]: Non-Toxic
clearance [13]: 9.83 mL/min/kg
Vd [14]: 1.29 L/kg
IC50 [15]: 2670 nM
half-life [16]: 91.2 min
MRT last [17]: 5.21 h
fraction unbound [18]: 0.0022
Cmax [19]: 7100 ng/mL
inhibition at 1 µM [20]: -5.42%
inhibition at 10 µM [21]: 27.8%
AUC [22]: 171.069 µg·h/mL
IC50 [1]: 4.8 nM
IC50 [23]: 972 nM
inhibition at 1 µM [24]: -9%
F [25]: 118.87%
half-life [26]: 882 min
Tmax [27]: 4 h
remaining at 1 h [2]: 93.3%
inhibition at 1 µM [28]: 16.9%
remaining at 1 h [3]: 106%
inhibition at 1 µM [29]: 7%

[2H]C([2H])([2H])NC(=O)c1nnc(NC(=O)C2CC2)cc1Nc1cccc(C(=O)Nc2ccc(C3CCCNC3=O)cc2)c1OC (configuration not stated)
IC50 [1]: 1.8 nM
remaining at 1 h [2]: 44.8%
remaining at 1 h [3]: 41.8%

[2H]C([2H])([2H])NC(=O)c1nnc(NC(=O)C2CC2)cc1Nc1cccc(C(=O)Nc2ccc(N3CCCCC3=O)cc2)c1OC
IC50 [1]: 1.4 nM
remaining at 1 h [2]: 53.9%
remaining at 1 h [3]: 50.6%

[2H]C([2H])([2H])NC(=O)c1nnc(NC(=O)C2CC2)cc1Nc1cccc(C(=O)Nc2ccc(-c3cccc(=O)[nH]3)cc2)c1OC
IC50 [1]: 55 nM

[2H]C([2H])([2H])NC(=O)c1nnc(NC(=O)C2CC2)cc1Nc1cccc(C(=O)Nc2ccc(-n3cccn3)cc2)c1OC
IC50 [1]: 6.4 nM
remaining at 1 h [2]: 54.9%
remaining at 1 h [3]: 78.5%

[2H]C([2H])([2H])NC(=O)c1nnc(NC(=O)C2CC2)cc1Nc1cccc(C(=O)Nc2ccc(-c3ccc(F)c(=O)[nH]3)cc2)c1OC
IC50 [1]: 13 nM
remaining at 1 h [2]: 58.2%
remaining at 1 h [3]: 81.8%

[2H]C([2H])([2H])NC(=O)c1nnc(NC(=O)C2CC2)cc1Nc1cccc(C(=O)Nc2ccc(N3CCCCS3(=O)=O)cc2)c1OC
IC50 [1]: 1.9 nM
remaining at 1 h [2]: 18.2%
remaining at 1 h [3]: 3.26%

[2H]C([2H])([2H])NC(=O)c1nnc(Nc2ccccn2)cc1Nc1cccc(C(=O)Nc2ccc(N3CCCCC3=O)cc2)c1OC
IC50 [1]: 0.81 nM
remaining at 1 h [2]: 23%
remaining at 1 h [3]: 44.5%

[2H]C([2H])([2H])NC(=O)c1nnc(Nc2ccc(F)cn2)cc1Nc1cccc(C(=O)Nc2ccc(N3CCCCC3=O)cc2)c1OC
IC50 [1]: 1 nM
remaining at 1 h [2]: 27.5%
remaining at 1 h [3]: 39.9%

[2H]C([2H])([2H])NC(=O)c1nnc(NC(=O)C2CC2)cc1Nc1cccc(C(=O)Nc2ccc(N3CCCCC3=O)cc2F)c1OC
IC50 [1]: 5.7 nM
remaining at 1 h [2]: 36.6%
remaining at 1 h [3]: 37.8%

[2H]C([2H])([2H])NC(=O)c1nnc(NC(=O)C2CC2)cc1Nc1cccc(C(=O)Nc2ccc(-c3ncn(CC)n3)cc2)c1OC
IC50 [1]: 43 nM

[2H]C([2H])([2H])NC(=O)c1nnc(NC(=O)C2CC2)cc1Nc1cccc(C(=O)Nc2ccc(-c3ncn(C)n3)cc2)c1OC
IC50 [1]: 14 nM

[2H]C([2H])([2H])NC(=O)c1nnc(NC(=O)C2CC2)cc1Nc1cccc(C(=O)Nc2ccc(N3CCCCC3)cc2)c1OC
IC50 [1]: 12 nM
remaining at 1 h [2]: 9%
remaining at 1 h [3]: 1.91%

[2H]C([2H])([2H])NC(=O)c1nnc(NC(=O)C2CC2)cc1Nc1cccc(C(=O)Nc2ccc(N3CCCCC3=O)c(Cl)c2)c1OC
IC50 [1]: 3.1 nM
remaining at 1 h [2]: 4.53%
remaining at 1 h [3]: 0.06%

[2H]C([2H])([2H])NC(=O)c1nnc(NC(=O)C2CC2)cc1Nc1cccc(C(=O)Nc2ccc(N3CCCC3=O)cc2)c1OC
IC50 [1]: 8.3 nM
remaining at 1 h [2]: 55.1%
remaining at 1 h [3]: 86.9%

[2H]C([2H])([2H])NC(=O)c1nnc(NC(=O)C2CC2)cc1Nc1cccc(C(=O)Nc2ccc(-c3cccnc3)cc2)c1OC
IC50 [1]: 24 nM

[2H]C([2H])([2H])NC(=O)c1nnc(NC(=O)C2CC2)cc1Nc1cccc(C(=O)Nc2ccc(N3CCCCCC3=O)cc2)c1OC
IC50 [1]: 2.5 nM
remaining at 1 h [2]: 5.63%
remaining at 1 h [3]: 0.39%
